Measured values published in patent US4818684A, “Auto-anti-idiotypic monoclonal antibodies to steroid receptors and uses thereof” (The Trustees of Columbia University in the City of New York, priority 1985, dated 1989).

Legend:
[1] = target: anti-steroid (unprocessed rabbit serum 540); experiment: Competitive inhibition of binding of [3H] triamcinolone to anti-steroid, unprocessed rabbit serum 540; conditions: for Kd: read-out: Competitive inhibition of binding of [3H] triamcinolone, Rabbit Serum 540 Unprocessed (apparent Kd)
Experimental: FIG. 4. […] See legend to Table 1 for the experimental procedure.
New Zealand white rabbits were immunized by multiple intradermal injections of a total of 1 ml of triamcinolone-BSA (2 mg/ml) in saline emulsified with an equal volume of complete Freunds adjuvant. Booster injections were given three weeks later and then at monthly intervals. Animals were bled bi-weekly from the ear vein and the sera stored at 4° C. until required.

[2] = test system: binding of 8G11-C6 to anti-steroid Fab fragments; experiment: ELISA inhibition of binding of 8G11-C6 to anti-steroid Fab fragments; conditions: ELISA (FIGS. 7, 8, 9)
Experimental: Controls with no inhibitor were included.
FIG. 9. […] The method used was similar to that described in the exerimental procedure. […] 200λ of the incubation mixture was then added to microtiter wells previously coated with 10 ng anti-steroid Fab fragments and incubated for 2 hrs at 37° C.
The presence of anti-idiotypic antibodies in the hybridoma culture medium were assayed by a double antibody sandwich ELISA. […] After washing twice with 0.01 M phosphate buffer--0.14M NaCl, pH 7.4, containing 0.05% Tween-20 (PBS-Tween), the culture medium from the hybridomas was added and incubated at 37° C. for 2 hrs. The wells were washed three times with PBS-Tween and 200 microliters of 1:3,000 dilution in PBS-Tween of goat anti-mouse 1gM-1gG horseradish peroxidase (Tago) was added. After incubating 1 hr at 37°, the wells were washed three times with PBS-tween and 200 microliters substrate (7 mg o-phenylenediamine dichloride in 10 ml 0.1 M citrate-phosphate buffer, pH 4.8 containing 5 microliters of 30% H2 O2) was added. Depending on the intensity of the color, the reaction was stopped after 5-10 min by the addition of 50 microliters 8N H2 SO4 and the OD determined (Titretek) at 492 nm.

[3] = target: T1, binding of 8G11-C6 to partially purified glucocorticoid receptor (Rattus norvegicus, UniProt P06536); experiment: ELISA inhibition of binding of 8G11-C6 to partially purified glucocorticoid receptor; conditions: ELISA (FIG. 11)
T1 construct: the glucocorticoid receptor was partially purified from rat liver cytosol; from tissue; host or cells: liver cytosol of Sprague-Dawley rats, receptor partially purified by the cited method of Gametchu & Harrison
T1 sequence (P06536 1-795): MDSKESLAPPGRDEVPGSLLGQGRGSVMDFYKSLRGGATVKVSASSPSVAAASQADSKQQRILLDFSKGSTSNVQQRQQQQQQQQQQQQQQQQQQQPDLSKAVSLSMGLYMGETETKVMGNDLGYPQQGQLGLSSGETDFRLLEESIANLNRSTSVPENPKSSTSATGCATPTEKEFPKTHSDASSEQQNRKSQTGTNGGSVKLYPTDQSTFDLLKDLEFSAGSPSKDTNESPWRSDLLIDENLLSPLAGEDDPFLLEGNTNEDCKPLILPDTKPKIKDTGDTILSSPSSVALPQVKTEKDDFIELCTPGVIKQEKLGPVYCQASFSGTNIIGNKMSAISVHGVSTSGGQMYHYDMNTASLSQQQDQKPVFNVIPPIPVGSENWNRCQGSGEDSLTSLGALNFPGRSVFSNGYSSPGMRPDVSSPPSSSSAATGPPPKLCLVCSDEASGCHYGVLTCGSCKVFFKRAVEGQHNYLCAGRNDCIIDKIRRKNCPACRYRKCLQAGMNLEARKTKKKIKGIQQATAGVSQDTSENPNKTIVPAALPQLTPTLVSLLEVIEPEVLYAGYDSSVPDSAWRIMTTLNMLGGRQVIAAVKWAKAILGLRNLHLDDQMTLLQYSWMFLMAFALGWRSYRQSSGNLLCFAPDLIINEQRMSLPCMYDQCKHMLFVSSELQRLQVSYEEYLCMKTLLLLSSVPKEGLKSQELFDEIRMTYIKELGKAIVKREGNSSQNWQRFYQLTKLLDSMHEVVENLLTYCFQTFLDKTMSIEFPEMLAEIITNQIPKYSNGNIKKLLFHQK
Experimental: FIG. 11. […] 200 microliters containing 0.54 micrograms protein of a partially purified receptor preparation in 0.1M NaHC03 pH 9.3 was added to the wells of polystyrene plates. These were incubated for 2 hrs at 37° C. Washed 2×with PBS […] 0.02% tween. […] See methods for the methodology employed. The inhibitors used were triamcinolone acetonide ( ), rabbit serum albumin ( ), and triamcinolone - RSA ( ).

[4] = target: affinity purified antisteroid; experiment: Competitive inhibition of binding of [3H] triamcinolone to affinity purified antisteroid; parameters: species or system rabbit; conditions: for Kd: read-out: Competitive inhibition of binding of [3H] triamcinolone, Affinity purified (apparent Kd)
Experimental: Thirty to 40 ml of serum obtained in part (a) of this example were passed slowly (±3.5 ml/hr) through the AH-Sepharose 4B triamcinolone column prepared according to (b) above. After washing with PBS to remove all unbound protein, the antibody was eluted with 0.2 M glycine pH 2.2 or 2.8. The eluate was dialyzed against 2 liters, 0.01 M PBS buffer pH 7.4 and the buffer changed at least 4 times before concentrating by vacuum dialysis at 4° C.
the glucocorticoid receptor, unprocessed rabbit serum 540, affinity
purified antisteroid and antisteroid Fab fragments. Assays with the […]

[5] = target: antisteroid Fab fragments; experiment: Competitive inhibition of binding of [3H] triamcinolone to antisteroid Fab fragments; conditions: read-out: Competitive inhibition of binding of [3H] triamcinolone, Rabbit serum 541 Fab fragments (apparent Kd)
Experimental: To the dialysate was added 0.1 M dithiothreitol (DTT) (15 microliters) EDTA (2 mg) and 0.2 mg mercuripapain (5 microliters) and the solution was incubated overnight at 37° C. It was then dialyzed against 4 l distilled H2 O for 3 hrs and then against 1 liter of PBS for 2 hrs and then applied to a Sephadex G100 column (1×5×90 cms) and eluted (±5 ml/hr) with 0.01 M PBS pH 7.4. One ml fractions were collected. Fractions 53-79 were combined and examined at 280 nm for protein content. Undigested IgG and Fc fragments were removed by passage through a protein A Sepharose column (5 ml bed volume); unbound Fab was eluted with 0.01 M PBS pH 7.4. The eluate was concentrated by vacuum dialysis.

glucocorticoid receptor = target: T2, glucocorticoid receptor (Rattus norvegicus, UniProt P06536)
T2 sequence (P06536 1-795): T1 sequence (P06536 1-795)
Experimental: Incubate in a total volume of 500 microliters, for 2 hrs at 4° C. 20 mM HEPES buffer containing 50 mM NaCl, 1 mM EDTA, 10% glycerol 0.1 mM DTT pH 7.6, 10nM [3H]TA and 200 microliters rat liver cytosol. Add 250 microliters 5% charcoal/dextran solution and after 10 min centrifuge and determine the radioactivity in 200 λaliquot.
Four to 6 days after 150-200 g Sprague-Dawley male rats were adrenalectomized, they were anesthesized with ether and the livers perfused in situ through the portal vein with 50 ml of cold saline. The livers were then removed, homogenized with a Teflon-glass homogenizer in 1.1 volume of 10 mM HEPES, containing 50 mM NaCl, 1 mM Na2 EDTA, 1 mM dithiothreitol (DTT) and 10% glycerol, pH 7.6, and centrifuged for 1 hr at 250,000 g at 4° C. The upper fatty layer was discarded. The supernatant was either frozen immediately in liquid-nitrogen and used for assays or labeled by incubating with 75 nM [^3 H]triamcinolone acetonide for 2 hrs at 4° C. Unbound steroid was removed with 5% dextran-coated charcoal. The [^3 H]TA labeled glucocorticoid receptor was partially purified by the method described by Gametchu & Harrison (9), the only modification being that the phosphocellulose was omitted from the first purification step.
glucocorticoid receptor included 100 ml of rat liver cytosol. 10^-8 M
[^3 H]TA and increasing concentrations of steroid in a total volume o
200 ml. […]

[6] = target: Fab fragments of affinity purified anti-steroid antibodies; experiment: Scatchard plot of binding of labeled steroid to Fab fragments of affinity purified anti-steroid antibodies; parameters: species or system rabbit; conditions: curved plot with [3H]TA, linear plot with [3H]-dexamethasone; read-out: Kd for Fab fragments of the anti-steroid, from Scatchard plots
Experimental: FIG. 3. Scatchard plot of the binding of [^3 H] triamcinolone to Fab fragments of affinity purified anti-steroid antibodies. Fab fragments (0.227 micrograms) were incubated with increasing concentrations of [^3 H] triamcinolone (0.4-62.5nM) in the presence of 0.01M phosphate buffered saline pH 7.4 containing 0.1% gelatin in a total volume of 200 microliters. Total and non-specific binding (50 micromoles triamcinolone acetonide) were determined for each of the [^3 H] triamcinolone levels and all points were in duplicate. After incubating 1 hr at room temperature, add 1 ml cold 5% charcoal/dextran (diluted 1:40 in 0.01M PBS containing 0.1% gelatin) and let stand on ice for 10 min. Centrifuge down the charcoal/dextran, decant the supernatant into scintillation vials and determine the radioactivity.

Row | Molecule | effect on the binding of 8G11-C6 to anti-steroid Fab fragments [2] | Kd [1] [µM] | Kd [5] [µM] | Kd [4] [µM] | also measured
1 | C[C@]12CCC(=O)C[C@@H]1CC[C@@H]1[C@@H]2CC[C@]2(C)[C@@H](O)CC[C@@H]12 [Dihydrotestosterone] | – | – | – | – | Competitive inhibition of binding of [3H] triamcinolone, Rabbit Serum 540 Unprocessed (apparent Kd) [1]: had no effect
2 | rabbit serum albumin: carrier protein tested alone as inhibitor | did not affect | – | – | – | –
3 | CC1(C)O[C@@H]2C[C@H]3[C@@H]4CCC5=CC(=O)C=C[C@]5(C)[C@@]4(F)[C@@H](O)C[C@]3(C)[C@]2(C(=O)CO)O1 [triamcinolone acetonide] | did not affect | – | – | – | –
4 | C[C@]12CC[C@H]3[C@@H](CCC4=CC(=O)CC[C@@]43C)[C@@H]1CC[C@@H]2O [Testosterone] | Neither triamcinolone, nor other steroids such as testosterone and estradiol-17β had any effect | – | – | – | Competitive inhibition of binding of [3H] triamcinolone, Rabbit Serum 540 Unprocessed (apparent Kd) [1]: not inhibited; effect on the binding of 8G11-C6 to partially purified glucocorticoid receptor [3]: only a slight inhibitory effect; Competitive inhibition of binding of [3H] triamcinolone, Affinity purified (apparent Kd) [4]: not inhibited
5 | C[C@@H]1C[C@H]2[C@@H]3CCC4=CC(=O)C=C[C@]4(C)[C@@]3(F)[C@@H](O)C[C@]2(C)[C@@]1(O)C(=O)CO [Dexamethasone] | – | 0.12 | 0.63 | 0.62 | –
6 | C[C@]12C[C@H](O)[C@H]3[C@@H](CCC4=CC(=O)CC[C@@]43C)[C@@H]1CC[C@@H]2C(=O)CO [Corticosterone] | – | 630 | 100 | 100 | –
7 | CC(=O)[C@H]1CC[C@H]2[C@@H]3CCC4=CC(=O)CC[C@]4(C)[C@H]3CC[C@]12C [Progesterone] | – | 100 | 100 | 100 | –
8 | C[C@]12CC[C@@H]3c4ccc(O)cc4CC[C@H]3[C@@H]1CC[C@@H]2O [estradiol-17β] | Neither triamcinolone, nor other steroids such as testosterone and estradiol-17β had any effect | – | – | – | effect on the binding of 8G11-C6 to partially purified glucocorticoid receptor [3]: no effect
9 | C[C@]12CCC(=O)C=C1CC[C@@H]1[C@@H]2[C@@H](O)C[C@@]2(C)[C@H]1CC[C@]2(O)C(=O)CO [Hydrocortisone] | – | 5 | 100 | 100 | –
10 | triamcinolone | Neither triamcinolone, nor other steroids such as testosterone and estradiol-17β had any effect | 0.0032 | 0.015 | 0.015 | Kd (glucocorticoid receptor): 0.005 µM
11 | [3H]C1C2=CC(=O)C=C[C@]2(C)[C@@]2(F)[C@@H](O)C[C@@]3(C)[C@@H](C[C@@H](C)[C@]3(O)C(=O)CO)[C@@H]2C1[3H] (stereo partly drawn) [[^3 H]-dexamethasone, 6,7[^3 H] dexamethasone] | – | – | – | – | Kd [6]: 0.15 µM
